Measurements from US20080261895A1 (Wyeth, priority 2006, published 2008).
Values joined by “and” are separate entries in the source; they are usually repeats but may differ in a detail not shown here. Equal entries are not always repeated.

Columns and labels:
[1] = Whole blood and plasma radioactivity and partitioning after single oral [14C]DVS, rats; assay type: in vivo, Sprague Dawley rats; conditions: single oral 20 mg/kg; for Radioactivity in Plasma, Individual Rats / Radioactivity in Plasma, Mean ± S.D. / Radioactivity in Whole Blood, Individual Rats: listed as [^14C]DVS, 20 mg/kg
Description: Sprague Dawley rats (12 male and 6 female), weighing between 0.311 and 0.345 kg for males and between 0.263 and 0.311 kg for females at the time of dosing, were used. Animals were given food and water ad libitum. For ease of reporting, the animals were designated numbers 001M through 012M for the male rats and 001F through 006F for the female rats. Three animals from the last time point, for each sex, were housed individually in metabolism cages for the collection of urine and feces. The other animals were housed individually in standard cages.
The oral dosing solution was prepared by combining 86.4 mL of 3.0 mg/mL (2.0 mg/mL, free base) unlabeled DVS solution with 3.6 mL of 4.3 mg/mL (3.0 mg/mL free base) [^14C]DVS solution. Solutions were prepared in 0.25% polysorbate 80, 0.5% methylcellulose in water. The radiochemical purity, specific activity and concentration of [^14C]DVS (bulk drug and dosing solution) were determined using HPLC with radiometric detection. Aliquots of the dosing solution were taken pre-, mid-, and post-dose for the determination of specific activity and radioactivity concentrations of dosing solution.
Whole blood (approximately 5 mL) was collected by cardiac puncture into heparinized tubes at the appropriate time points (1, 4, 8, and 24 hours for male rats, and 1 and 8 hours for female rats, N=3 for each sex at each time point). Triplicate aliquots (200 μL) of whole blood were placed into combusto-cones, weighed and allowed to air dry. These samples were oxidized. The remaining blood was centrifuged at 5000×g and 4° C. for 10 minutes (Model Legend RT centrifuge, Sorvall). The resulting plasma was transferred to fresh tubes and triplicate aliquots (100 μL) were analyzed for radioactivity content. The remaining plasma was stored at −70° C. until metabolite analysis.
Blood samples and fecal homogenates were oxidized in a Model 307 Tri-Carb sample oxidizer, using Carbosorb® E (6 mL) as trapping agent and PermaFluor® E^+ (10 mL) as scintillant. Oxidation efficiency was determined by oxidation of C-Spec-Chec (Perkin Elmer), a standard of known radioactivity, and determined to be 98.7%. The background reading (average of control blood or fecal samples) was subtracted from each sample reading. Aliquots of urine and plasma were analyzed directly following the addition of 10 mL of Ultima Gold™ scintillation fluid.
All radioactivity determinations were made using a Tri-Carb Model 3100TR liquid scintillation counter (Perkin Elmer) with an Ultima Gold™ or toluene standard curve. Counts per minute (CPM) were converted to disintegrations per minute (DPM) by use of external standards of known radioactivity. The quench of each standard was determined by the transformed spectral index of an external radioactive standard (tSIE). The lower limits of detection were defined as twice background.

[2] = Urinary excretion and metabolite profile by radiochromatography, rats; assay type: in vivo, Sprague Dawley rats; conditions: for Compounds Detected by Radiochromatography in urine (Mean ± S.D., n = 3), percent of total peaks / Radioactivity as % of Dose in urine, Mean ± S.D. / Radioactivity as % of Dose in urine, Individuals: single oral 20 mg/kg; for Radioactivity as % of Dose in urine, Individuals: listed as [^14C]DVS, 20 mg/kg
Description: Urine and feces were collected separately on dry ice from three animals per sex. Collections were from 0-8 and 8-24 hours for male rats and 0-8 hours for female rats. Fecal samples were homogenized in approximately five volumes (v/w) of water. Aliquots of approximately 0.4 grams of the homogenate were placed into combusto-cones, weighed and allowed to air dry. These samples were then oxidized. The remaining urine samples and fecal homogenates were stored at −70° C. until metabolite analysis.
All urine samples were analyzed for metabolite profiles. Aliquots of 0.5 mL urine were centrifuged at 3500 rpm and 4° C. in a Sorvall Super 21 centrifuge for 10 minutes. The supernatant was transferred to a fresh tube and analyzed for radioactivity content and by HPLC for profiling. Selected samples were also analyzed by LC/MS to characterize the radioactive peaks.
Chromatographic analyses were performed with a Waters Alliance model 2690 HPLC system (Waters Corp., Milford, Mass.). It was equipped with a built-in autosampler and was in-line with a model 2487 tunable UV detector, set to monitor 225 nm, and a FloOne β Model 525 radioactivity flow detector (Perkin Elmer) with a 250 μL LQTR flow cell. The flow rate of Ultima Flow M scintillation fluid was 1 mL/min, providing a mixing ratio of scintillation cocktail to mobile phase of 5:1. Separation of the metabolite peaks was accomplished on a Phenomenex Luna C18(2) column, 150×2.0 mm, 5 micron (Phenomenex, Torrance, Calif.), using a linear gradient of two mobile phases, A and B. Mobile phase A was 10 mM ammonium acetate, pH 6.0, and mobile phase B was acetonitrile. The flow rate was 0.2 mL/min.

[3] = Stability of [14C]DVS in control dog urine; assay type: in vitro ADME; conditions: 37° C., up to 24 hours
Description: The stability of [^14C]DVS in dog urine was determined. [^14C]DVS (0.025 mg/mL, final concentration) was added to control dog urine and incubated in a shaking water bath set to 37° C. Aliquots (1 mL) were removed at 0, 1, 4, 8 and 24 hours. Samples were extracted as described above and radiopurity assayed by HPLC analysis.

dog liver microsomes = experiment: Glucuronidation in dog liver microsomes; assay type: in vitro ADME; conditions: dog liver microsomes 1 mg/mL, 100 μM, 30 minutes; in the presence of only UDPGA
Description: To confirm the site of glucuronidation of DVS, incubations were performed using dog liver microsomes. These incubations compared the glucuronidation of DVS to venlafaxine. […] Reactions were initiated by the addition of UDPGA (final concentration 1 mM). An additional set of incubations was performed for venlafaxine with UDPGA and an NADPH generating system. […] Reactions were stopped by the addition of 500 μL of acetonitrile and processed as described above. Samples were analyzed by LC/MS.

[4] = test system: norepinephrine levels in the brains; experiment: Norepinephrine levels in the brains of rats; assay type: in vivo; conditions: 30 mg/kg (free base), administered subcutaneously, male Sprague Dawley rats

- Radioactivity in Whole Blood, Mean ± S.D. ([1]; 1 hr, female): 6.18 ± 0.74 μg equivalents/mL
- Radioactivity in Whole Blood, Mean ± S.D. ([1]; 1 hr, male): 6.87 ± 1.50 μg equivalents/mL
- Radioactivity in Whole Blood, Mean ± S.D. ([1]; 4 hr, male): 0.88 ± 0.12 μg equivalents/mL
- Radioactivity in Whole Blood, Mean ± S.D. ([1]; 8 hr, female): 0.58 ± 0.07 μg equivalents/mL
- Radioactivity in Whole Blood, Mean ± S.D. ([1]; 8 hr, male): 0.59 ± 0.18 μg equivalents/mL
- Radioactivity in Whole Blood, Mean ± S.D. ([1]; 24 hr, male): 0.07 ± 0.01 μg equivalents/mL
- Compounds Detected by Radiochromatography in urine (Mean ± S.D., n = 3), percent of total peaks ([2]; 0-8 hr, female): 20.0 ± 3.5%
- Radioactivity as % of Dose in urine, Mean ± S.D. ([2]; 0-8 hr, female): 54.5 ± 12%
- Radioactivity as % of Dose in urine, Individuals ([2]; 0-8 hr, female): 53.8% and 42.7% and 67.1%
- Compounds Detected by Radiochromatography in urine (Mean ± S.D., n = 3), percent of total peaks ([2]; 0-8 hr, male): 10.9 ± 2.1%
- Radioactivity as % of Dose in urine, Mean ± S.D. ([2]; 0-8 hr, male): 59.1 ± 7.9%
- Radioactivity as % of Dose in urine, Individuals ([2]; 0-8 hr, male): 60.1% and 50.7% and 66.5%
- Compounds Detected by Radiochromatography in urine (Mean ± S.D., n = 3), percent of total peaks ([2]; 8-24 hr, male): 9.1 ± 1.1%
- Radioactivity as % of Dose in urine, Mean ± S.D. ([2]; 8-24 hr, male): 25.5 ± 6.4%
- Radioactivity as % of Dose in urine, Individuals ([2]; 8-24 hr, male): 24.6% and 32.3% and 19.7%
- % of the radioactive dose recovered in urine ([2]; within 24 hours post-dose): 85%
- % of the radioactive dose recovered in urine ([2]; within the first 8 hours post-dose): greater than 50%
- Stability of [14C]DVS in control dog urine [3]: stable
- glucuronidation (dog liver microsomes): observed
Structure (SMILES): CN(C)CC(c1ccc(O)cc1)C1(O)CCCCC1.O=C(O)CCC(=O)O (centres unmarked) [DVS, O-desmethylvenlafaxine succinate]
- Radioactivity in Plasma, Individual Rats ([1]; 1 hr, female): 9.61 μg equivalents/mL and 8.74 μg equivalents/mL and 11.3 μg equivalents/mL
- Radioactivity in Plasma, Mean ± S.D. ([1]; 1 hr, female): 9.90 μg equivalents/mL and 9.90 ± 1.2 μg equivalents/mL
- Radioactivity in Whole Blood, Individual Rats ([1]; 1 hr, female): 5.63 μg equivalents/mL and 5.76 μg equivalents/mL and 7.15 μg equivalents/mL
- Radioactivity in Plasma, Individual Rats ([1]; 1 hr, male): 10.4 μg equivalents/mL and 8.90 μg equivalents/mL and 13.7 μg equivalents/mL
- Radioactivity in Plasma, Mean ± S.D. ([1]; 1 hr, male): 11.0 μg equivalents/mL and 11.0 ± 2.2 μg equivalents/mL
- Radioactivity in Whole Blood, Individual Rats ([1]; 1 hr, male): 6.11 μg equivalents/mL and 5.66 μg equivalents/mL and 8.85 μg equivalents/mL
- Radioactivity in Plasma, Individual Rats ([1]; 4 hr, male): 1.59 μg equivalents/mL and 1.62 μg equivalents/mL and 1.22 μg equivalents/mL
- Radioactivity in Plasma, Mean ± S.D. ([1]; 4 hr, male): 1.48 μg equivalents/mL and 1.48 ± 0.20 μg equivalents/mL
- Radioactivity in Whole Blood, Individual Rats ([1]; 4 hr, male): 0.95 μg equivalents/mL and 0.96 μg equivalents/mL and 0.72 μg equivalents/mL
- Radioactivity in Plasma, Individual Rats ([1]; 8 hr, female): 0.86 μg equivalents/mL and 0.82 μg equivalents/mL and 1.08 μg equivalents/mL
- Radioactivity in Plasma, Mean ± S.D. ([1]; 8 hr, female): 0.92 μg equivalents/mL and 0.92 ± 0.12 μg equivalents/mL
- Radioactivity in Whole Blood, Individual Rats ([1]; 8 hr, female): 0.59 μg equivalents/mL and 0.50 μg equivalents/mL and 0.66 μg equivalents/mL
- Radioactivity in Plasma, Individual Rats ([1]; 8 hr, male): 0.53 μg equivalents/mL and 1.10 μg equivalents/mL and 1.05 μg equivalents/mL
- Radioactivity in Plasma, Mean ± S.D. ([1]; 8 hr, male): 0.89 μg equivalents/mL and 0.89 ± 0.27 μg equivalents/mL
- Radioactivity in Whole Blood, Individual Rats ([1]; 8 hr, male): 0.35 μg equivalents/mL and 0.71 μg equivalents/mL (2×)
- Radioactivity in Plasma, Individual Rats ([1]; 24 hr, male): 0.07 μg equivalents/mL and 0.08 μg equivalents/mL and 0.05 μg equivalents/mL
- Radioactivity in Plasma, Mean ± S.D. ([1]; 24 hr, male): 0.07 μg equivalents/mL and 0.07 ± 0.01 μg equivalents/mL
- Radioactivity in Whole Blood, Individual Rats ([1]; 24 hr, male): 0.06 μg equivalents/mL and 0.08 μg equivalents/mL and 0.05 μg equivalents/mL
- norepinephrine levels in the brains [4]: significantly increased
